Columns and labels:
Assay type in all cases: cell-based
[1] = test system: Aspergillus niger ATCC®16404™; assay: MBC determination, broth microdilution with CFU enumeration; settings: A. niger
Procedure: (§1) The minimal bactericidal concentration (MBC) is defined as the lowest concentration of an antimicrobial agent that results in a complete killing of the microbial population (determined via standard CFU enumeration techniques) after overnight incubation. This endpoint measurement is used, together with the MIC (see above), to define the microbial susceptibility towards an antimicrobial agent. Here, the antimicrobial agent is a combination of the natural enzymes GOX+LPO.
(§2) To determine the MBC of the described combinations, a classical broth microdilution assay combined with standard CFU enumeration techniques was used to determine the susceptibility of a series of microbes commonly detected in infected wounds, including (a) the Gram-positive bacterium Staphylococcus aureus ATCC® 6538™ (results shown below), (b) the Gram-negative bacterium Pseudomonas aeruginosa ATCC®9027™ (results shown below), (c) the yeast Candida albicans ATCC®10231™ (results shown below), and (d) the fungus Aspergillus niger ATCC®16404™ (results shown below). In brief, the broth microdilution assay was set up as previously described (see 2.1). After incubation, the MBC was determined by investigating the presence of viable microorganisms at the MIC and following higher concentrations (MICx2, MICx4, and so on) using standard CFU enumeration techniques. For each combination evaluated, this test was repeated at least 5 times. The collected data were further analyzed in MS Excel. Mean concentration data (expressed as log CFU/ml) were visualized in a table format in which the MBC was highlighted.

[2] = test system: Pseudomonas aeruginosa ATCC®9027™; assay: as above; settings: P. aeruginosa
Procedure: as §1, §2

[3] = test system: S. aureus (ATCC®6538™); assay: Microbial challenge testing in alginogel with GOX+LPO; settings: for antimicrobial activity of enhancing candidate only against S. aureus: alginogel without enzymes, highest concentration tested; for reduction in absolute S. aureus counts compared to reference (enzymes only): alginogel, 0.0075% GOX+LPO; for reduction in absolute S. aureus counts compared to guaiacol in the same concentration: alginogel with GOX+LPO, enhancer 0.0005%
Procedure: To determine the ability of an antimicrobial agent to elicit an antimicrobial preserving efficacy in a gel environment, a microbiological challenge test can be performed. Here, the antimicrobial agent is a combination of the natural enzymes GOX+LPO. […] Microbial challenge testing was performed according to the method described in the European Pharmacopoeia current version chapter 5.1.3 ‘Efficacy of antimicrobial preservation’, but with adapted time points (0, 10, 20, 30, 40, 50, 60, 70 and 80 min instead of 0, 2, 7, 14 and 28 days). In brief, for every enhancing agent to be evaluated, a lab-scale alginogel (based on the Flaminal® formulation, but without the original enhancer guaiacol) including 0.0075% GOX+LPO (1:1) was prepared according to standard practices. Enhancing agents were added to the alginogel in a final concentration ranging from 0.01 to 0,00025% (v/w). As a reference, an alginogel including 0.0075% GOX+LPO (1:1) without the addition of any enhancing agent was included (designated as: enzymes only). As a control, an alginogel without both GOX+LPO (1:1) enzyme solution and enhancing agent (designated as: empty gel) as well as an alginogel only containing the enhancing agent only (designated as: enhancing candidate only) were included. After preparation, a homogenous sample of 10 g was transferred into a 50 ml conical tube for each alginogel to be evaluated and microorganism to be tested. For each test microorganism, including S. aureus (ATCC®6538™), P. aeruginosa (ATCC®9027™), C. albicans (ATCC®10231™) and A. niger (ATCC®16404 ™), a microbial suspension of about 10^8 CFU/ml was prepared in sterile diluent (buffered sodium chloride-peptone solution). Then, the 50 ml conical tubes containing the alginogel samples to be evaluated were inoculated with 100 μl of the designated inoculum. At the start (time point 0) and after 0, 10, 20, 30, 40, 50, 60, 70 and 80 min, the number of viable microorganisms per gram product (expressed as CFU/g) was determined by transferring a sample of 0.5 g of the product into a 15 ml conical tube containing 4.5 ml of sterile diluent and applying general dilution and plate count techniques. For each combination evaluated, this test was repeated at least 1-3 times. The collected data were further analyzed in MS Excel. Mean absolute counts (expressed as log CFU/g) were visualized in a graph.
The purpose of the hereby described experiment was to compare the efficacy of antimicrobial activity enhancement of the GOX+LPO (1:1) enzyme combination by ethanolamine and proline in a microbial challenge test using S. aureus. The test was set up as described in the section on ‘challenge testing’ in Example 2.4. The test was repeated at least 3 times.
The purpose of the hereby described experiment was to compare the efficacy of antimicrobial activity of the GOX+LPO (1:1) enzyme combination in the presence of potassium chloride/potassium bromide and potassium iodide. A microbial challenge test using S. aureus was performed. The test was set up as described in the section on ‘challenge testing’ in Example 2.4.

[4] = test system: Aspergillus niger ATCC®16404™; assay: Absolute microbial counts in function of enzyme solution concentration; settings: 0.005%-0.000156% (v/v) GOX+LPO
Description: (§3) Absolute microbial counts in function of concentration of the antimicrobial agent tested are useful to monitor the bactericidal and fungicidal efficacy of that agent.
(§4) To determine the absolute number of live microorganisms in function of different enzyme solution concentrations tested, a classical broth microdilution assay combined with standard CFU enumeration techniques was used to determine the susceptibility of a series of microbes commonly detected in infected wounds, including (a) the Gram-positive bacterium Staphylococcus aureus ATCC® 6538™ (results shown below), (b) the Gram-negative bacterium Pseudomonas aeruginosa ATCC®9027™ (results shown below), (c) the yeast Candida albicans ATCC®10231™ (results shown below), and (d) the fungus Aspergillus niger ATCC®16404™ (results shown below). In brief, the broth microdilution assay was set up as previously described (see 2.1). After incubation, the absolute microbial count at the MIC and following higher concentrations (MICx2, MICx4, and so on) was determined using standard CFU enumeration techniques. For each combination evaluated, this test was repeated at least 5 times. The collected data were further analyzed in MS Excel and expressed as log CFU/ml. Mean results were plotted in function of enzyme solution concentration.

[5] = test system: Pseudomonas aeruginosa ATCC®9027™; assay: as above; settings: for reduction in absolute P. aeruginosa counts compared to reference and guaiacol solution: 0.005%-0.0000391% (v/v) GOX+LPO
Description: as §3, §4

[6] = enhancer 0,1%, 0,005%-0.000625% (v/v) GOX+LPO
[7] = enhancer 1%, 0,005%-0.000156% (v/v) GOX+LPO

| SMILES | MBC: GOX+LPO enzyme solution needed ([2]; enhancer 0,1%) | increase in MBC compared to reference ([2]; enhancer 0,1%) | MBC: GOX+LPO enzyme solution needed ([2]; enhancer 1%) | increase in MBC compared to reference ([2]; enhancer 1%) | antimicrobial activity of enhancing candidate only against S. aureus [3] | reduction in absolute S. aureus counts compared to reference (enzymes only) ([3]; enhancer 0.0025%) | reduction in absolute P. aeruginosa counts compared to reference [5, 6] | reduction in absolute P. aeruginosa counts compared to reference [5, 7] | MBC: GOX+LPO enzyme solution needed ([1]; enhancer 1%-0.01%) | increase in MBC compared to reference ([1]; enhancer 1%-0.01%) | reduction in absolute S. aureus counts compared to guaiacol in the same concentration [3] | reduction in absolute S. aureus counts compared to reference (enzymes only) ([3]; enhancer 0.00125-0.0005%) | reduction in absolute A. niger counts compared to reference ([4]; enhancer 1-0.01%) | MBC: GOX+LPO enzyme solution needed ([2]; enhancer 0.0025-0.00125%) | increase in MBC compared to reference or guaiacol solution ([2]; enhancer 0.0025-0.00125%) | MBC: GOX+LPO enzyme solution needed ([2]; enhancer 0.01-0.005%) | increase in MBC compared to reference or guaiacol solution ([2]; enhancer 0.01-0.005%) | reduction in absolute P. aeruginosa counts compared to reference and guaiacol solution ([5]; enhancer 0.0025-0.00125%) | other results |
| --- | --- | --- | --- | --- | --- | --- | --- | --- | --- | --- | --- | --- | --- | --- | --- | --- | --- | --- | --- |
| NC(=O)C[C@H](N)C(=O)O [Asparagine, asparagine] | 0.000625 % (v/v) | 2 × | 0.000156 % (v/v) | 8 × | no antimicrobial activity | immediate entire reduction | stronger reduction | stronger reduction | – | – | – | – | – | – | – | – | – | – | MBC: GOX+LPO enzyme solution needed ([1]; enhancer 1%-0.05%): 0.000156 % (v/v); increase in MBC compared to reference ([1]; enhancer 1%-0.05%): 2 ×; reduction in absolute S. aureus counts compared to reference (enzymes only) ([3]; enhancer 0,00125%): faster complete reduction; reduction in absolute A. niger counts compared to reference ([4]; enhancer 1-0.05%): stronger reduction |
| NC(=O)CC[C@H](N)C(=O)O [Glutamine, glutamine] | 0.000625 % (v/v) | 2 × | 0.000156 % (v/v) | 8 × | no antimicrobial activity | immediate entire reduction | stronger reduction | stronger reduction | 0.000156 % (v/v) | 2 × | faster complete reduction | faster complete reduction | stronger reduction | – | – | – | – | – | – |
| CC[C@H](C)[C@H](N)C(=O)O [Isoleucine, isoleucine] | 0.000625 % (v/v) | 2 × | 0.000156 % (v/v) | 8 × | no antimicrobial activity | immediate entire reduction | stronger reduction | stronger reduction | – | – | faster complete reduction | faster complete reduction | – | – | – | – | – | – | MBC: GOX+LPO enzyme solution needed ([1]; enhancer 1%-0.005%): 0.000156 % (v/v); increase in MIC compared to reference (MBC section) ([1]; enhancer 1%-0.005%): 2 ×; reduction in absolute A. niger counts compared to reference ([4]; enhancer 1-0.005%): stronger reduction |
| O=C(O)[C@@H]1CCCN1 [Proline, proline] | – | – | – | – | no antimicrobial activity | immediate entire reduction | – | – | 0.000156 % (v/v) | 2 × | faster complete reduction | faster complete reduction | stronger reduction | 0.000625 % (v/v) | 2 × | 0.000625 % (v/v) | 2 × | stronger reduction | exposure time to complete reduction of absolute S. aureus counts (average) ([3]; alginogel with GOX+LPO (1:1), enhancer 0,0005% (v/v)): 60 min; reduction in absolute P. aeruginosa counts compared to reference and guaiacol solution ([5]; enhancer 0.01-0.001%): stronger reduction |
| N[C@@H](CO)C(=O)O [Serine, serine] | – | – | – | – | no antimicrobial activity | immediate entire reduction | – | – | 0.000156 % (v/v) | 2 × | faster complete reduction | faster complete reduction | stronger reduction | 0.000625 % (v/v) | 2 × | 0.000625 % (v/v) | 2 × | stronger reduction | reduction in absolute P. aeruginosa counts compared to reference and guaiacol solution ([5]; enhancer 0.01-0.005%): stronger reduction |
| C[C@@H](O)[C@H](N)C(=O)O [Threonine, threonine] | 0.000625 % (v/v) | 2 × | 0.000156 % (v/v) | 8 × | no antimicrobial activity | immediate entire reduction | stronger reduction | stronger reduction | 0.000156 % (v/v) | 2 × | faster complete reduction | faster complete reduction | stronger reduction | – | – | – | – | – | – |
